Results reported in EP4371976B1, “IONIZABLE LIPIDS AND LIPID NANOPARTICLES CONTAINING THEREOF” (Certest Biotec, S.L., priority 2022, dated 2024).

Assays:
[1] = Apparent pKa of LNPs comprising the ionizable lipid (Table 6); details: standard formulation 50:10:38.5:1.5
[2] = Size distribution, polydispersity and Z-potential of LNPs by dynamic light scattering (Malvern Zetasizer); type: physicochemical; details: LNPs, standard formulation 50:10:38.5:1.5; DLS
Experimental: (§1) The LNP solution was then adjusted to a final concentration of mRNA of 100 µg/ml. Size distribution, polydispersity and Z-potential were measured by dynamic light scattering (DLS) using Malvern Zetasizer Advance Lab Blue Label. RNA encapsulation was assessed by Quant-IT® Ribogreen following the manufacturer's instructions.

[3] = RNA encapsulation efficiency of LNPs by Quant-IT Ribogreen; type: physicochemical; details: LNPs with luciferase mRNA; ionizable lipid:non-cationic lipid:sterol:PEG-modified lipid 50:10:38.5:1.5; percentage of RNA entrapped in the LNP
Experimental: The mRNA aqueous solution was then carefully added to the ethanol solution, and the resulted solution was homogenized by pipetting up and down for 4-5 times. The resulting LNPs were immediately diluted 1:1 with Tris buffer and dialyzed overnight against Tris buffer containing 15% sucrose. The resulting LNP solution was then collected, and the encapsulated mRNA was assessed by Quant-IT® Ribogreen (Invitrogen R11490) following the manufacturer's instructions.
as §1

Apparent pKa [1] | P.D.I. [2] | Particle size/ Ø (nm) [2] [nm] | Z Potential (± D.E.) [mV] [2] [mV] | Encaps. efficiency (%) [3] [%] | SMILES
6.46 | 0.12 | 128.8 | -0.57 | 98.56 | CCCCCCCCC(CCCCCC)C(=O)NC(CCSCCC(=O)OCC(CC)CCCC)C(=O)NCC1CCN(C)CC1 (centres unmarked) [VC-LC-0493]
6.61 | 0.14 | 155.7 | -10.98 | 31.75 | CCCCCCCCC(CCCCCCCC)OC(=O)C(CSCCC(=O)OCC(CC)CCCC)CC(=O)NCCCN1CCOCC1 (centres unmarked) [VC-LC-0543]
5.88 | 0.20 | 179.2 | -11.14 | 50.40 | CCCCCCCCC(CCCCCC)COC(=O)C(CCSCCC(=O)OCC(CC)CCCC)C(=O)NCCCN1CCOCC1 (centres unmarked) [VC-LC-0608]
8.11 | 0.15 | 137.8 | 8.05 | 99.89 | CCCCCCCCC(CCCCCC)COC(=O)C(CSCCC(=O)OCCCCCC(C)C)CC(=O)NC1CCN(C)CC1 (centres unmarked) [VC-LC-0532]
7.32 | 0.17 | 169.3 | 5.29 | 95.57 | CCCCCCCC/C=C\CCCCCCCCOC(=O)CCSCCC(NC(=O)C(CCCCCCCC)CCCCCCCCCC)C(=O)NCC1CCN(C)CC1 (centres unmarked) [VC-LC-0523]
6.53 | 0.12 | 140.3 | -11.02 | 36.86 | CCCCCCCCCCCCOC(=O)CCSCC(CC(=O)NCCCN1CCOCC1)C(=O)OC(CCCCCCCC)CCCCCCCC (centres unmarked) [VC-LC-0544]
6.79 | 0.16 | 149.1 | -4.15 | 62.45 | CCCCCCCC#CCOC(=O)CCSCCC(NC(=O)C(CCCCCC)CCCCCCCC)C(=O)NCCN(CC)CC (centres unmarked) [VC-LC-0488]
5.68 | 0.24 | 136.3 | -11.79 | 52.30 | CCCCCCCCCCCCCOC(=O)CCSCCC(C(=O)NCCCN1CCOCC1)C(=O)OCC(CCCCCC)CCCCCCCC (centres unmarked) [VC-LC-0605]
6.03 | 0.13 | 143.8 | -5.88 | 60.57 | CCCCCCCC/C=C\CCCCCCCCOC(=O)CCSCCC(NC(=O)C(CCCCCC)CCCCCCCC)C(=O)NCCN(CC)CC (centres unmarked) [VC-LC-0489]
6.86 | 0.22 | 169.8 | 5.52 | 98.99 | CCCCCCCCCCCCOC(=O)CCSCCC(NC(=O)C(CCCCCC)CCCCCCCC)C(=O)NCC1CCN(C)CC1 (centres unmarked) [VC-LC-0494]
6.39 | 0.11 | 154.7 | -6.83 | 42.80 | CCCCCCCCC(CCCCCC)COC(=O)CCSCC(CC(=O)NCCCN1CCOCC1)C(=O)OC(CCCCCCCC)CCCCCCCC (centres unmarked) [VC-LC-0541]
5.93 | 0.13 | 168.1 | -21.04 | 55.68 | CCCCCCCCCCCCCCOC(=O)CCSCCC(C(=O)NCCCN1CCOCC1)C(=O)OCC(CCCCCC)CCCCCCCC (centres unmarked) [VC-LC-0610]
5.23 | 0.14 | 165.1 | -8.81 | 69.42 | CCCCCCCCCCCCC(CCCCCCCCCC)COC(=O)CCSCC(CC(=O)NC1CCN(C)CC1)C(=O)OCC(CCCCCC)CCCCCCCC (centres unmarked) [VC-LC-0537]
6.57 | 0.13 | 149.0 | -3.35 | 55.25 | CCCCCCCCCCC(CCCCCCCC)C(=O)NC(CCSCCC(=O)OCCCCCC)C(=O)NC1CCN(C)CC1 (centres unmarked) [VC-LC-0566]
7.47 | 0.15 | 152.3 | 1.06 | 99.46 | CCCCCCCCC(CCCCCC)C(=O)NC(CCSCCC(=O)OCCCCCC(C)C)C(=O)NCC1CCN(C)CC1 (centres unmarked) [VC-LC-0498]
7.39 | 0.15 | 144.9 | -2.73 | 97.61 | CCCCCCCCCCC(CCCCCCCC)C(=O)NC(CCSCCC(=O)OCC(CC)CCCC)C(=O)NCC1CCN(C)CC1 (centres unmarked) [VC-LC-0510]

Further lines, the compound ahead of its results:

SMILES | Apparent pKa [1] | P.D.I. [2] | Particle size/ Ø (nm) [2] [nm] | Z Potential (± D.E.) [mV] [2] [mV] | Encaps. efficiency (%) [3] [%]
CCCCCCCCCCCCC(CCCCCCCCCC)COC(=O)CCSCCC(NC(=O)C(CCCCCC)CCCCCCCC)C(=O)NC1CCN(C)CC1 (centres unmarked) [VC-LC-0428] | 5.84 | 0.11 | 185.3 | -8.34 | 65.37
CCCCCCCCCCCCCCCCOC(=O)CCSCCC(C(=O)NCCCn1ccnc1)C(=O)OC(CCCCCCCC)CCCCCCCC (centres unmarked) [VC-LC-0369] | 6.02 | 0.15 | 137.6 | -10.72 | 92.05
CCCCCCCC/C=C\CCCCCCCC(=O)NC(CCSCC(=O)OCCCCCCCCCCCCC)C(=O)NCCCN1CCOCC1 (centres unmarked) [VC-LC-0338] | 6.64 | 0.14 | 146.3 | -5.38 | 62.80
CCCCCCCCCCCCCCOC(=O)CCSCC(CC(=O)NCCCn1ccnc1)C(=O)OC(CCCCCCCC)CCCCCCCC (centres unmarked) [VC-LC-0299] | 6.09 | 0.15 | 193.3 | -13.45 | 57.64
CCCCCCCCCCCCCOC(=O)CCSCCC(NC(=O)C(CCCCCC)CCCCCCCC)C(=O)NCCCn1ccnc1 (centres unmarked) [VC-LC-0256] | 5.91 | 0.12 | 184.3 | -15.91 | 92.30
CCCCCCCCOC(=O)CCSCCC(NC(=O)C(CCCCCC)CCCCCCCC)C(=O)NCCCN1CCOCC1 (centres unmarked) [VC-LC-0176] | 5.77 | – | – | -17.58 | 47.36
CCCCCCCCCCCCCCCCCC(=O)NC(CCSCCC(=O)OCC(CCCCCC)CCCCCCCC)C(=O)NC1CCN(C)CC1 (centres unmarked) [VC-LC-0433] | 7.75 | 0.13 | 180.8 | 4.87 | 96.77
CCCCCCCCC(CCCCCC)C(=O)NC(CCSCCC(=O)OCC(CC)CCCC)C(=O)NCCCn1ccnc1 (centres unmarked) [VC-LC-0259] | 6.21 | 0.14 | 138.8 | -8.47 | 41.89
CCCCCCCC/C=C\CCCCCCCCOC(=O)CCSCCC(NC(=O)CCCCCCCCCCCCCCCCC)C(=O)NC1CCN(C)CC1 (centres unmarked) [VC-LC-0438] | 6.61 | 0.15 | 181.3 | 7.19 | 95.26
CCCCCCCCCCCCOC(=O)CCSCCC(C(=O)NCCCn1ccnc1)C(=O)OC(CCCCCCCC)CCCCCCCC (centres unmarked) [VC-LC-0366] | 6.33 | 0.16 | 122.6 | -13.24 | 89.18
CCCCCCCCC(CCCCCCCC)OC(=O)C(CCSCCC(=O)OCC(CC)CCCC)C(=O)NCCCn1ccnc1 (centres unmarked) [VC-LC-0365] | 6.33 | 0.24 | 124.1 | -17.43 | 66.86
CCCCCCCC/C=C\CCCCCCCC(=O)NC(CCSCCC(=O)OCCCCCCCC(C)C)C(=O)NCCCN(CCO)CCO (centres unmarked) [VC-LC-0292] | 7.06 | 0.18 | 177.7 | 7.79 | 94.63
CCCCCCCCCCCCOC(=O)CCSCCC(NC(=O)C(CCCCCC)CCCCCCCC)C(=O)NCCN(CC)CC (centres unmarked) [VC-LC-0477] | 6.65 | 0.15 | 146.7 | -9.55 | 57.43
CCCCCCCCC(CCCCCC)C(=O)NC(CCSCCC(=O)OCCCCCC)C(=O)NCCCn1ccnc1 (centres unmarked) [VC-LC-0268] | 6.18 | 0.14 | 173 | -10.85 | 29.52
CCCCCCCCC(CCCCCC)C(=O)NC(CCSCCC(=O)OCCCCCCC)C(=O)NCCCN(CCO)CCO (centres unmarked) [VC-LC-0207] | 7.18 | 0.2 | 185.7 | -0.83 | 93.61
CCCCCCCCCCCCCOC(=O)CCSCCC(NC(=O)C(CCCCCC)CCCCCCCC)C(=O)NCCN(CC)CC (centres unmarked) [VC-LC-0473] | 6.73 | 0.085 | 134.0 | -7.78 | 43.07
